# Experimental data as given in patent US10195248B2, “Use of haptoglobin subunit for promoting wound healing” (Taipei Medical University, priority 2016, dated 2019).
# System: low-density lipoproteins (LDL)
# Assay: Anti-oxidant test (TBARS production, Cu-induced LDL oxidation)
# Assay type: biochemical
# Conditions: 5 μM CuSO4, 20 μg LDL, 37° C., 2 hours; TBARS absorbance 540 nm; FIG. 1
# Description: In this experiment, production level of thiobarbituric acid-reactive substances (TBARS) was measured to determine oxidization level of low-density lipoproteins (LDL). Specifically, […], of each test article was mixed with 5 μM copper (II) sulfate (CuSO4) and 20 μg of LDL, and then incubated at 37° C. for 2 hours. 250 μL of 20% tricholoroacetic acid was added to the precipitated protein. After that, 250 μL of 0.67% 2-thiobarbituric acid was added to the obtained mixture and incubated at 80° C. for 30 minutes. The final resultant was separated to give a supernatant by centrifugation at 3,000 g for 5 minutes. 300 μL of the supernatant was taken to a 96-well plate to measure its absorbance under 540 nm.
row,Compound,inhibitory concentration (IC50) for anti-oxidant activity (rank order)
1,"CC(C)(Sc1cc(C(C)(C)C)c(O)c(C(C)(C)C)c1)Sc1cc(C(C)(C)C)c(O)c(C(C)(C)C)c1 [probucol, Probucol]",follow it sequentially
2,Hp β subunit: haptoglobin β subunit,follow it sequentially
